Patent publication US7405063B2, “Biooxidation capabilities of Candida sp” (Cognis Corporation, priority 2000, dated 2008)
Where two headings read alike, the source gives them in different places.

Assays:
C. tropicalis = test: Toxicity tests of additional substrates (absorbance at 600 nm); type: cell-based; settings: 24 hours, added without solvent
Procedure: Additional substrates were to be tested for bioconversion following a slightly different protocol than the one noted above in Example 3. Those substrates also had to be tested for toxicity similar to the test described in Example 2, to determine the highest concentration at which a substrate could be added to a culture broth without being toxic, inhibiting growth, or interfering with the bioconversion process. C. tropicalis was grown in the presence of the substrate at three different concentrations and growth was monitored spectrophotometrically. In contrast to Example 2, all test substrates were added directly to the culture medium without dissolving in solvent. The tests were completed as follows:
On the first day, H5343 was grown in YPD medium (25.0 ml seed culture) overnight on a rotary shaker at 30° C. and 250 rpm. The next day 1.0 ml of the seed culture was used to inoculate a new flask of 50 ml YPD. This culture was grown overnight on a rotary shaker at 30° C. and 250 rpm. […]
Two control flasks were each inoculated with H5343 in 25 ml YPD. All flasks were incubated on a rotary shaker at 30° C. and 250 rpm.
After 24 hours incubation, the absorbance at 600 nm of the test and control flask cultures was determined, using uninoculated YPD broth as blank. Cultures were diluted so that the OD^600 nm measured between 0.15 and 0.3.
For strongly inhibitory substrates, a concentration of 0.1-0.2% was chosen for the bioconversion tests.

[1] = system: C. tropicalis strain H5343; test: Toxicity tests of substrates (growth by absorbance at 600 nm, streak plates); type: cell-based; settings: 48 h, 30° C., dilution in YPD 1:100
Procedure: The toxicity test used here was similar to that used for the solvents described in Example 1. The goal was to determine the highest concentration at which a substrate could be added to a culture broth without being toxic, inhibiting growth, or interfering with the bioconversion process. C. tropicalis strain H5343 was grown in the presence of the substrate at different concentrations and growth was monitored spectrophotometrically. In order to determine if the substrate was lethal or was simply inhibiting growth, the cultures were examined under the microscope and streak plates of YPD and LB agar were prepared. Contamination of the culture with an unwanted organism could also be detected using this approach.
6 ml was transferred to the first tube and 3 ml to the rest. 1% substrate was added to the first tube and then serially diluted to give concentrations from 1% to 0.015%. Since the last tube was initially empty, the concentration in the last two tubes was the same. […] As a growth-control one culture without substrate was inoculated.
To determine if contamination had occurred, each culture was examined under the microscope and streak plates of both YPD and LB were made from the 1% and the inoculated 0.015% tube.

[2] = system: C. tropicalis strain H5343; settings: for nontoxic concentration of solvent: growth of strain H5343; for ABS Lambda = 600.0 nm: 24 h, 30° C., dilution in YPD 1:100

For `CCCCCCCCC(CO)CCCCCC` (stereo not shown) [2-Hexyl-1-decanol], the “Absorbance at 600 nm” value (C. tropicalis; substrate concentration 0.1%) was 24.43, the “Absorbance at 600 nm” value (C. tropicalis; substrate concentration 0.5%) was 19.73 and the “Absorbance at 600 nm” value (C. tropicalis; substrate concentration 1.0%) was 11.93. The “ABS 600.0 nm” value ([1]; substrate concentration 0.01563%) was 0.120, the “ABS 600.0 nm” value ([1]; substrate concentration 0.0313%) was 0.145 and the “ABS 600.0 nm” value ([1]; substrate concentration 0.063%) was 0.110. The “ABS 600.0 nm” value ([1]; substrate concentration 0.13%) was 0.273, the “ABS 600.0 nm” value ([1]; substrate concentration 0.25%) was 0.145 and the “ABS 600.0 nm” value ([1]; substrate concentration 0.5%) was 0.122. The “ABS 600.0 nm” value ([1]; substrate concentration 1%) was 0.117.

`CC(C)=O` [Acetone] was tested, and the “nontoxic concentration of solvent” value [2] was ≤ 4%, the “ABS Lambda = 600.0 nm” value ([2]; solvent concentration 0.25%) was 0.123 and the “ABS Lambda = 600.0 nm” value ([2]; solvent concentration 0.5%) was 0.183. For the same compound, the “ABS Lambda = 600.0 nm” value ([2]; solvent concentration 1%) was 0.111, the “ABS Lambda = 600.0 nm” value ([2]; solvent concentration 2%) was 0.149 and the “ABS Lambda = 600.0 nm” value ([2]; solvent concentration 4%) was 0.087.

In the case of `CCO` [Ethanol], the “nontoxic concentration of solvent” value [2] is reported as 4%, the “ABS Lambda = 600.0 nm” value ([2]; solvent concentration 0.25%) is reported as 0.122 and the “ABS Lambda = 600.0 nm” value ([2]; solvent concentration 0.5%) is reported as 0.104. The “ABS Lambda = 600.0 nm” value ([2]; solvent concentration 1%) was 0.137, the “ABS Lambda = 600.0 nm” value ([2]; solvent concentration 2%) was 0.119 and the “ABS Lambda = 600.0 nm” value ([2]; solvent concentration 4%) was 0.090.

In the case of `CCCCCC` [Hexane], the “nontoxic concentration of solvent” value [2] is reported as 2%, the “ABS Lambda = 600.0 nm” value ([2]; solvent concentration 0.25%) is reported as 0.119 and the “ABS Lambda = 600.0 nm” value ([2]; solvent concentration 0.5%) is reported as 0.148. The “ABS Lambda = 600.0 nm” value ([2]; solvent concentration 1%) was 0.119, the “ABS Lambda = 600.0 nm” value ([2]; solvent concentration 2%) was 0.126 and the “ABS Lambda = 600.0 nm” value ([2]; solvent concentration 4%) was 0.005.

For `CCCCCOCCCCC` [Pentyl Ether, Dipentyl Ether], the “Absorbance at 600 nm” value (C. tropicalis; substrate concentration 0.1%) was 2.033, the “Absorbance at 600 nm” value (C. tropicalis; substrate concentration 0.5%) was 1.863 and the “Absorbance at 600 nm” value (C. tropicalis; substrate concentration 1.0%) was 1.813.

`CCCC1CCCCC1` [Propylcyclohexane] was tested, and the “Absorbance at 600 nm” value (C. tropicalis; substrate concentration 0.1%) was 44.13, the “Absorbance at 600 nm” value (C. tropicalis; substrate concentration 0.5%) was 34.12 and the “Absorbance at 600 nm” value (C. tropicalis; substrate concentration 1.0%) was 1.201.
